# Experiments:
# boll weevil larvae [1] = test: Boll weevil larvae bioassay (diet incorporation); format: in vivo; conditions: for lethal effects against boll weevil: incorporated at up to 200 &M in the standard diet
# Protocol: Assays for activity against boll weevil larvae are carried out by incorporating the test sample into a agar liquid diet similar to that for southern corn rootworm [Marrone et al., 1985]. The test sample is substituted for the 20% water component. Neonate larvae are allowed to feed on the diet and mortality and growth stunting are evaluated.
# Protein concentrations were determined spectrophotometrically with BCA protein reagent [Smith et al., 1985].
# H. zea neonate larvae = test: B.t. / cholesterol oxidase synergy diet assay; format: in vivo, Helicoverpa zea; set-up: surv.: unit not given here; conditions: CO 15 ppm, alone or in tandem; for Mean Larval wgt / Stunting Observed: 7-day
# Protocol: (§1) Feeding assays were conducted for 7-10 days.
# [2] = tested on: fall armyworn (FAW) neonate larvae; test: B.t. / cholesterol oxidase synergy diet assay; format: in vivo; conditions: 7-day; each protein 15 ppm, alone or in tandem
# Protocol: as §1
# [3] = tested on: black cutworm (BCW) neonate; test: Detached leaf assay with transgenic corn; format: in vivo, Agrotis ipsilon; conditions: corn leaf tissue, 3d
# Excerpt: A detached leaf assay was designed to evaluate biological activity of transgenic corn expressing either CryIA(b) alone or in combination with cholesterol oxidase (CO) against Agrotis ipsilon, black cutworm (BCW). In artificial diet assays, a synergistic response was observed when CO and CryIA(b) were combined.
# Treatments included transgenic corn expressing either CryIA(b) alone or in combination with CO. Plant tissue from the F1 generation of two CO events crossed to a CryIA(b) event was used in this bioassay. The CO events included collosian and flushed. The CryIA(b) event was ezra. For each of the CO events by CryIA(b) cross, the CO isopopulations provide the tissue for each treatment.
# CO expression was estimated to be 15 and 14 ppm for collosian and flushed, respectively. CryIA(b) expression was not quantitated. Historically, this event has reliably and consistently expressed the CryIA(b) protein at around 10 ppm.
# Tissue was collected at the v6 stage from the youngest leaf of six plants for each treatment event combination. Four leaf samples (1.5×2.0 cm leaf pieces) were taken from each plant, where each piece was placed singly in a well of a 24-well microtiter plate. One neonate larva was added to each well and sealed with a mylar lidding. The assay was incubated for 3 days at 27° C. Larval weight (mg) and mortality was recorded. […] Although larval weight was less in the CryIA(b)+CO treatment for both events as compared to CryIA(b) alone (ca. 12%), the difference between the treatment means within an event was not significant.
# [4] = tested on: black cutworm (BCW) larvae; test: B.t. / cholesterol oxidase synergy diet assay; format: in vivo, Agrotis ipsilon; conditions: each protein 15 ppm, alone or in tandem
# [5] = tested on: beet armyworm (BAW) neonate larvae; test: B.t. / cholesterol oxidase synergy diet assay; format: in vivo; conditions: each protein 15 ppm, alone or in tandem; for Mean Larval wgt / Stunting Observed: 7-day
# Protocol: as §1
# [6] = tested on: Tobacco budworm (TBW) neonate larvae; test: B.t. / cholesterol oxidase synergy diet assay; format: in vivo; conditions: 7-day; for surv.: n 96
# Protocol: as §1
# [7] = tested on: boll weevil or lepidopteran larvae; test: Feeding of diet incubated with enzyme and then boiled; format: in vivo; conditions: diet incubated one week with the enzyme, then boiled
# Excerpt: While not being bound by this theory, it is believed that the 3-hydroxysteroid oxidase enzyme kills or stunts boll weevil larvae and stunts the growth of lepidopteran larvae by some action in the gut after ingestion.
# [8] = tested on: midguts of boll weevil larvae; test: Midgut morphology of larvae feeding on enzyme diets; format: in vivo
# Excerpt: The enzymatic action in the gut is believed to be oxidation of the 3-hydroxysteroid(s) of the cell membranes in the lining of the gut. The effects of ingested 3-hydroxysteroid oxidase on the midguts of boll weevil larvae have been studied. The midguts of boll weevil larvae (neonate and second instar at initiation of assay) feeding on diets containing sublethal doses of 3-hydroxysteroid oxidase were dissected out. Representative midguts were immediately placed in fixative and analyzed microscopically for morphological changes. […] There was a good correlation of the morphological changes with the observed mortality over the 3-hydroxysteroid oxidase concentration range in the diet. Parallel midguts were dissected and homogenized and found to contain active 3-hydroxysteroid oxidase in enzymatic assays.
# tobacco budworm larvae = test: Cottonseed diet (Pharmamedia flour) test with tobacco budworm; format: in vivo; conditions: 100 ppm in cottonseed diet (Pharmamedia flour)
# Protocol: The Southern corn rootworm diet used in the assay described above was the control. Two treatment diets were made by mixing 30 g of one of two types of cottonseed flour into 170 mL of a 1.6% agar solution at 50% C, containing 0.13% propionic acid, 0.014% phosphoric acid, and 30 mg each of streptomycin sulfate and chlortetracycline. Before mixing, 10% KOH was used to adjust the pH to 6.2. One test diet utilized raw cottonseed flour (Sigma) as the nutrient source; the other utilized Pharmamedia™ (Traders Protein), a flour made up of cottonseed embryos. The diets were incubated in a water bath at 40% C. Dilutions of the Sigma Streptomyces 3-hydroxysteroid oxidase (cholesterol oxidase) were incorporated into the diets as described above. Boll weevil larvae were allowed to feed and mortality rates were determined after six days.
# In addition, tobacco budworm larvae are 68% stunted when exposed to 3-hydroxysteroid oxidase (100 ppm) in cottonseed diet (made with Pharmamedia™ flour).
# boll weevil larvae [9] = test: Homogenized cotton leaf tissue assay; format: in vivo; conditions: six days, initial 24
# Protocol: In order to test 3-hydroxysteroid oxidase against boll weevil larvae in a host tissue diet environment, a study was conducted in which cotton leaf tissue was the only nutritional component of an agar-based diet. Two cotton leaves (each approx. 5 inches wide ) with stems were homogenized at 50% C into 170 mL of a 1.6% agar solution containing 0.13% propionic acid, 0.014% phosphoric acid, and 30 mg each of streptomycin sulfate and chlortetracycline. Before addition of the leaves, 10% KOH was used to adjust the pH of the agar solution to 6.2. The leaf "diet" was allowed to cool to 40% C. Dilutions of cholesterol oxidase and a water control were incorporated into the leaf "diet", poured into insect diet trays and allowed to cool. Boll weevil eggs were added to the diet wells. The assay was evaluated six days later. […] This illustrates that the enzyme is insecticidal in the presence of intact cotton tissue and cells.
# [10] = CO 15 ppm, CryIA(c) 0.1 ppm, alone or in tandem
# [11] = CryIA(c) 0.05 ppm, alone or with CO 15 ppm
Compound,lethal effects against boll weevil (boll weevil larvae [1]),Mean Larval wgt (H. zea neonate larvae; CryIA(b) 10 ppm) [mg],Stunting Observed (H. zea neonate larvae; CryIA(b) 10 ppm) [%],"Obs. Mort. (H. zea neonate larvae; 7 day, CryIA(b) 10 ppm) [%]","surv. (H. zea neonate larvae; 7 day, CryIA(b) 10 ppm)","Obs. Mort. (H. zea neonate larvae; 8 day, CryIA(b) 10 ppm) [%]","surv. (H. zea neonate larvae; 8 day, CryIA(b) 10 ppm)",Mean Larval wgt [2] [mg],Obs. Mort. [2] [%],Stunting Observed [2] [%],surv. [2],Obs. Mort. ([4]; 3rd instar 6 day) [%],surv. ([4]; 3rd instar 6 day),"Mean Larval wgt ([4]; 3rd instar, 6-day assay) [mg]","Stunting Observed ([4]; 3rd instar, 6-day assay) [%]",Obs. Mort. ([4]; Neonate 6 day) [%],surv. ([4]; Neonate 6 day),Obs. Mort. ([4]; Neonate 7 day) [%],surv. ([4]; Neonate 7 day),"Mean Larval wgt ([4]; Neonate, 7-day assay) [mg]",also measured
"CC(C)CCC[C@@H](C)[C@H]1CC[C@H]2[C@@H]3CCC4=CC(=O)CC[C@]4(C)[C@H]3CC[C@]12C [cholestenone, reference compound]","Nor do cholestenone or hydrogen peroxide, the products of enzymatic action on cholesterol, exhibit any lethal effects",,,,,,,,,,,,,,,,,,,,
"OO [hydrogen peroxide, reference compound]","Nor do cholestenone or hydrogen peroxide, the products of enzymatic action on cholesterol, exhibit any lethal effects",,,,,,,,,,,,,,,,,,,,
"CryIA(b): Bacillus thuringiensis crystal protein, purified; in Table 24 expressed in transgenic corn event ezra",,0.96,97,4.3,90,10,69,0.25 ± 0.05,10,99,80,0,32,216,15,0,91,2,76,13.64,"Mean Larval Weight ([3]; event collosian x ezra): 1.11 mg; Mort. ([3]; event collosian x ezra): 7%; Mean Larval Weight ([3]; event flushed x ezra): 1.27 mg; Mort. ([3]; event flushed x ezra): 8%; Stunting Observed ([4]; Neonate, 7-day assay): 7%"
"CryIA(c): Bacillus thuringiensis crystal protein, purified",,,,,,,,,,,,,,,,,,,,,"Obs. Mort. (H. zea neonate larvae; 7 day, CryIA(c) 15 ppm): 11%; surv. (H. zea neonate larvae; 7 day, CryIA(c) 15 ppm): 82; Obs. Mort. (H. zea neonate larvae; 10 day, CryIA(c) 15 ppm): 11%; surv. (H. zea neonate larvae; 10 day, CryIA(c) 15 ppm): 82; Mean Larval wgt [5]: 6.15 ± 0.90 mg; Stunting Observed [5]: 88%; Obs. Mort. ([5]; 7 day): 2%; surv. ([5]; 7 day): 94; Obs. Mort. ([5]; 8 day): 3%; surv. ([5]; 8 day): 70; Obs. Mort. [6, 10]: 38%; surv. [6, 10]: 56; Obs. Mort. [6, 11]: 23%; surv. [6, 11]: 70"
catalase [reference compound],,,,,,,,,,,,,,,,,,,,,effect of added catalase on lethal effects of 3-hydroxysteroid oxidase on boll weevil (boll weevil larvae [1]; catalase added to 3-hydroxysteroid oxidase in the bioassay): does not block the lethal effects
cholesterol oxidase,,24.95,27,0,95,1,87,42.97 ± 1.77,2,0,90,0,32,197,22,2,81,1,61,9.93,"lethal or stunting effects [7]: no lethal or stunting effects; Obs. Mort. (H. zea neonate larvae; 7 day, CryIA(c) 15 ppm): 0%; surv. (H. zea neonate larvae; 7 day, CryIA(c) 15 ppm): 96; Obs. Mort. (H. zea neonate larvae; 10 day, CryIA(c) 15 ppm): 0%; surv. (H. zea neonate larvae; 10 day, CryIA(c) 15 ppm): 96; Mean Larval wgt [5]: 27.51 ± 5.52 mg; Stunting Observed [5]: 47%; Obs. Mort. ([5]; 7 day): 1%; surv. ([5]; 7 day): 94; Obs. Mort. ([5]; 8 day): 3%; surv. ([5]; 8 day): 77; Obs. Mort. [6, 10]: 1%; surv. [6, 10]: 90; midgut morphological changes ([8]; higher doses): complete lysis of the cells; midgut morphological changes ([8]; larvae ingesting low doses): Disruption of the epithelial cell layer; Stunting Observed ([4]; Neonate, 7-day assay): 32%; stunted (tobacco budworm larvae): 68%; Bollweevils Survivors (boll weevil larvae [9]; 10 ppm in cotton leaf diet): 20; Bollweevils Survivors (boll weevil larvae [9]; 50 ppm in cotton leaf diet): 12; Bollweevils Survivors (boll weevil larvae [9]; 100 ppm in cotton leaf diet): 0"

# From patent US5763245A, “Method of controlling insects” (priority 1996, dated 1998)
